Where two headings read alike, the source gives them in different places.
Assays:
PC-3 cells = assay: Antiproliferative activity, CCK-8 assay, PC-3 cells; type: cell-based; settings: PC-3 human prostate cancer cell line, 24 h, mean ± SD of three experiments
Method: (§1) The antiproliferative activity of compounds 5–26 was assessed using the CCK-8 assay ([Chen et al., 2016]; [Chen et al., 2017]; [Chen et al., 2018]; [Han et al., 2020]; [Guo et al., 2021]; [Hu et al., 2022]; [Zhou et al., 2022]). The 96-well plates (1×10^5 cells/mL) were seeded with cells in a medium, the plates were cultured at 37 °C for 24 h, then different concentrations of tested drugs were added, and the plates were cultured for 24 h. After 24 h, 10 μL of CCK-8 solution (5 mg/ml) was added to the wells, and the cells were cultured for 1 h at 37°C. Cell growth inhibition was performed by measuring the absorbance at 450 nm using a microplate reader, and the percentage of cell growth inhibition was then calculated for each tested drug.
(§2) Antiproliferative activity of the novel arylpiperazine derivatives was firstly evaluated against LNCaP cells using the CCK-8 assay. […] Naftopidil and finasteride ([Banday et al., 2014]) were used as control compounds. RWPE-1 cells were used to compare their toxicity. To clarify whether the antiproliferative activity was related to any interference with AR function, the AR antagonist effect was evaluated using the luciferase reporter gene assay. […] The AR luciferase assays were conducted under the co-treatment of 1 nM AR agonist R1881, and the antagonistic activity was measured by inhibiting the R1881-induced luciferase expression.

LNCaP cells = assay: Antiproliferative activity, CCK-8 assay, LNCaP cells; type: cell-based; settings: 24 h, LNCaP human prostate cancer cell line, mean ± SD of three experiments
Method: as §1, §2

RWPE-1 cells = assay: Cytotoxicity, CCK-8 assay, RWPE-1 normal prostate epithelial cells; type: cell-based; settings: RWPE-1 normal non-cancer human prostate epithelial cell line, 24 h, mean ± SD of three experiments
Method: as §1, §2

AR-LBD (GST) = molecular target: T1, AR-LBD (GST) (Rattus norvegicus, UniProt P15207); assay: AR binding, fluorescence polarization (PolarScreen AR Competitor Assay)
T1 sequence (P15207 651-882 limits assumed): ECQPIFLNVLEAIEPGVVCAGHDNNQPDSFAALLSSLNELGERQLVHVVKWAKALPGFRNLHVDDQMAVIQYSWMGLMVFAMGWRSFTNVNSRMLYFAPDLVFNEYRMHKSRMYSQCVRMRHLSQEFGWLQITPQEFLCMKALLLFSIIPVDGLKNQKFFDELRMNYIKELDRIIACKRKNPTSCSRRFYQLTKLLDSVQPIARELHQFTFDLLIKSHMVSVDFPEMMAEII
Method: Briefly, titrations are performed between the tested compounds and the preformed Fluormone™AL Green and the AR-LBD (GST) complex. The tested mixture was allowed to equilibrate at room temperature in 384-well plates for 4 h. […] Data of the ligand binding assays were analyzed using Prism software (GraphPad Software, Inc.).

[1] = AR binding affinity IC50, fluorescence polarization

Row | SMILES | IC50 (PC-3 cells) [µM] | IC50 (LNCaP cells; Homo sapiens, LNCaP) [µM] | melting point [°C] | IC50 (LNCaP cells) [µM] | IC50 (AR-LBD (GST)) [µM] | IC50 (AR-LBD (GST); [1]) [µM] | IC50 (RWPE-1 cells) [µM]
1 | c1ccc(N2CCN(CCc3ccc(COc4ccc5c(c4)CCC5)cc3)CC2)nc1 [Compound 7, 1-(4-((2,3-dihydro-1H-inden-5-yloxy)methyl)phenethyl)-4-(pyridin-2-yl)piperazine] | > 50 | 15.29 ± 0.13 | 90.1 to 91.8 |  |  |  | 7.68 ± 0.15
2 | Cc1ccc(N2CCN(CCc3ccc(COc4ccc5c(c4)CCC5)cc3)CC2)cc1 [Compound 10, 1-(4-((2,3-dihydro-1H-inden-5-yloxy)methyl)phenethyl)-4-p-tolylpiperazine] | 17.2 ± 0.21 | 20.9 ± 0.22 | 105.1 to 106.3 |  |  |  | 9.24 ± 0.23
3 | Cc1cccc(N2CCN(CCc3ccc(COc4ccc5c(c4)CCC5)cc3)CC2)c1 [Compound 9, 1-(4-((2,3-dihydro-1H-inden-5-yloxy)methyl)phenethyl)-4-m-tolylpiperazine] | > 50 | 42.68 ± 0.14 | 61.2 to 62.7 |  |  |  | 11 ± 0.16
4 | COc1cccc(N2CCN(CCc3ccc(COc4ccc5c(c4)CCC5)cc3)CC2)c1 [Compound 14, 1-(4-((2,3-dihydro-1H-inden-5-yloxy)methyl)phenethyl)-4-(3-methoxyphenyl)piperazine] | 0.87 ± 0.12 |  | 74.2 to 75.4 |  | 2.62 ± 0.25 |  | > 50
5 | CCOc1ccccc1N1CCN(CCc2ccc(COc3ccc4c(c3)CCC4)cc2)CC1 [Compound 13, 1-(4-((2,3-dihydro-1H-inden-5-yloxy)methyl)phenethyl)-4-(2-ethoxyphenyl)piperazine] | > 50 | > 50 | 65.2 to 66.1 |  |  |  | > 50
6 | COc1ccc(N2CCN(CCc3ccc(COc4ccc5c(c4)CCC5)cc3)CC2)cc1 [Compound 15, 1-(4-((2,3-dihydro-1H-inden-5-yloxy)methyl)phenethyl)-4-(4-methoxyphenyl)piperazine] | 8.94 ± 0.21 | < 10 | 78.1 to 79.3 | 9.72 ± 0.13 | 2.85 ± 0.65 |  | 21.7 ± 0.23
7 | c1ccc(N2CCN(CCc3ccc(COc4ccc5c(c4)CCC5)cc3)CC2)cc1 [Compound 5, 1-(4-((2,3-dihydro-1H-inden-5-yloxy)methyl)phenethyl)-4-phenylpiperazine] | > 50 |  | 82.2 to 83.5 |  | 1.46 ± 0.24 | < 2 | > 50
8 | c1ccc(CN2CCN(CCc3ccc(COc4ccc5c(c4)CCC5)cc3)CC2)cc1 [Compound 6, 1-(4-((2,3-dihydro-1H-inden-5-yloxy)methyl)phenethyl)-4-benzylpiperazine] | 11.3 ± 0.15 | 23.45 ± 0.12 | 71.1 to 73.3 |  |  |  | 11.6 ± 0.21
9 | Cc1ccc(C)c(N2CCN(CCc3ccc(COc4ccc5c(c4)CCC5)cc3)CC2)c1 [Compound 11, 1-(4-((2,3-dihydro-1H-inden-5-yloxy)methyl)phenethyl)-4-(2,5-dimethylphenyl)piperazine] | 4.31 ± 0.13 | > 50 | 70.4 to 71.5 |  |  |  | > 50

Continued, in another order:

Row | IC50 (PC-3 cells) [µM] | IC50 (LNCaP cells; Homo sapiens, LNCaP) [µM] | melting point [°C] | IC50 (LNCaP cells) [µM] | IC50 (AR-LBD (GST)) [µM] | IC50 (AR-LBD (GST); [1]) [µM] | SMILES | IC50 (RWPE-1 cells) [µM]
10 | 42.1 ± 0.79 | 22.4 ± 0.61 |  |  |  |  | COc1ccccc1N1CCN(CC(O)COc2cccc3ccccc23)CC1 (centres unmarked) [Naftopidil, reference compound] | > 50
11 | 2.31 ± 0.23 | 14.7 ± 0.15 | 114.1 to 115.2 |  |  |  | Brc1ccc(N2CCN(CCc3ccc(COc4ccc5c(c4)CCC5)cc3)CC2)cc1 [Compound 24, 1-(4-((2,3-dihydro-1H-inden-5-yloxy)methyl)phenethyl)-4-(4-bromophenyl)piperazine] | > 50
12 | > 50 | 18.56 ± 0.17 | 64.2 to 65.3 |  |  |  | Fc1ccccc1N1CCN(CCc2ccc(COc3ccc4c(c3)CCC4)cc2)CC1 [Compound 16, 1-(4-((2,3-dihydro-1H-inden-5-yloxy)methyl)phenethyl)-4-(2-fluorophenyl)piperazine] | > 50
13 | > 50 | < 10 | 91.4 to 92.1 | 6.87 ± 0.06 | 2.06 ± 0.21 | < 3 | Clc1ccccc1N1CCN(CCc2ccc(COc3ccc4c(c3)CCC4)cc2)CC1 [Compound 19, 1-(4-((2,3-dihydro-1H-inden-5-yloxy)methyl)phenethyl)-4-(2-chlorophenyl)piperazine] | 32.67 ± 0.14
14 | 23.48 ± 0.23 | < 10 | 77.2 to 78.4 | 6.32 ± 0.14 | 2.47 ± 0.11 | < 3 | Clc1cccc(N2CCN(CCc3ccc(COc4ccc5c(c4)CCC5)cc3)CC2)c1Cl [Compound 22, 1-(4-((2,3-dihydro-1H-inden-5-yloxy)methyl)phenethyl)-4-(2,3-dichlorophenyl)piperazine] | > 50
15 | 1.92 ± 0.24 | 10.7 ± 0.14 | 86.1 to 86.5 |  |  |  | Fc1ccc(N2CCN(CCc3ccc(COc4ccc5c(c4)CCC5)cc3)CC2)c(F)c1 [Compound 18, 1-(4-((2,3-dihydro-1H-inden-5-yloxy)methyl)phenethyl)-4-(2,4-difluorophenyl)piperazine] | > 50
16 | > 50 |  | 135.3 to 136.5 |  | 1.43 ± 0.18 | < 2 | FC(F)(F)c1ccc(N2CCN(CCc3ccc(COc4ccc5c(c4)CCC5)cc3)CC2)cc1 [Compound 26, 1-(4-((2,3-dihydro-1H-inden-5-yloxy)methyl)phenethyl)-4-(4-(trifluoromethyl)phenyl)piperazine] | > 50
17 | 0.95 ± 0.14 | 12.6 ± 0.22 | 87.4 to 88.3 |  |  |  | Cc1ccc(Cl)cc1N1CCN(CCc2ccc(COc3ccc4c(c3)CCC4)cc2)CC1 [Compound 23, 1-(4-((2,3-dihydro-1H-inden-5-yloxy)methyl)phenethyl)-4-(5-chloro-2-methylphenyl)piperazine] | > 50
18 | 1.45 ± 0.17 | 17.92 ± 0.13 | 79.8 to 80.5 |  |  |  | Fc1ccc(N2CCN(CCc3ccc(COc4ccc5c(c4)CCC5)cc3)CC2)cc1 [Compound 17, 1-(4-((2,3-dihydro-1H-inden-5-yloxy)methyl)phenethyl)-4-(4-fluorophenyl)piperazine] | > 50
19 | > 50 |  | 117.2 to 118.6 |  | 0.65 ± 0.08 | < 2 | Clc1ccc(N2CCN(CCc3ccc(COc4ccc5c(c4)CCC5)cc3)CC2)cc1 [Compound 21, 1-(4-((2,3-dihydro-1H-inden-5-yloxy)methyl)phenethyl)-4-(4-chlorophenyl)piperazine] | > 50
20 | 1.56 ± 0.14 | 16.98 ± 0.15 | 83.2 to 84.3 |  |  |  | Clc1cccc(N2CCN(CCc3ccc(COc4ccc5c(c4)CCC5)cc3)CC2)c1 [Compound 20, 1-(4-((2,3-dihydro-1H-inden-5-yloxy)methyl)phenethyl)-4-(3-chlorophenyl)piperazine] | > 50
21 | > 50 |  | 53.6 to 54.8 |  | 1.22 ± 0.15 | < 2 | FC(F)(F)c1ccccc1N1CCN(CCc2ccc(COc3ccc4c(c3)CCC4)cc2)CC1 [Compound 25, 1-(4-((2,3-dihydro-1H-inden-5-yloxy)methyl)phenethyl)-4-(2-(trifluoromethyl)phenyl)piperazine] | > 50
